Measured values from patent publication US9144557B2, “Hematopoietic growth factor mimetic small molecule compounds and their uses” (Ligand Pharmaceuticals Inc., priority 2009, dated 2015).

System: UT7/EPO Cell line
Assay: Cell Proliferation Assay (UT7/EPO, ViaLight Plus)
Type: cell-based, human
Conditions: proliferative effect; compounds at 10 uM; UT7/EPO cells starved of EPO overnight; 72 hours at 37° C.; ViaLight Plus kit
Method in brief: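 UT7/EPO human leukemia cells (endogenous EPO receptor, EPO-dependent growth) were EPO-starved overnight, then exposed to compounds at 10 uM for 72 hours at 37° C. Proliferation was read out by ATP-based luminescence (ViaLight Plus).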

Row | SMILES | Activity (%)
1 | Cc1ccc(C(=O)Nc2ccc(Nc3ccc(NC(=O)c4ccc(N5CCC(O)CC5)cc4)cc3)c(F)c2)n1C [Compound 760, N-(3-Fluoro-4-((4-(4-(4-hydroxypiperidin-1-yl)benzamido)phenyl)amino)phenyl)-1,5-dimethyl-1H-pyrrole-2-carboxamide] | 21
2 | O=C(Nc1ccc(Nc2ccc(NC(=O)c3ccc4c(ccn4CCO)c3)cc2)cc1)c1ccc(N2CCC(O)CC2)cc1 [Compound 775] | 22
3 | Cc1cc(C(=O)Nc2ccc(Nc3ccc(NC(=O)c4ccc(N5CCC(O)CC5)cc4)cc3)cc2)c(C)[nH]1 [Compound 790] | 18
4 | Cn1cccc1C(=O)Nc1ccc(Nc2ccc(NC(=O)c3ccc(N4CCC(CO)CC4)cc3)cc2)cc1 [Compound 800, N-(4-((4-(4-(4-Hydroxymethylpiperidin-1-yl)benzamido)phenyl)amino)phenyl)-1-methyl-1H-pyrrole-2-carboxamide] | 23
5 | Cn1cccc1C(=O)Nc1ccc(Nc2ccc(NC(=O)c3ccc(N4CCC(O)CC4)c(F)c3)cc2)cc1 [Compound 815, N-(4-((4-(3-Fluoro-4-(4-hydroxypiperidin-1-yl)benzamido)phenyl)amino)phenyl)-1-methyl-1H-pyrrole-2-carboxamide] | 17
6 | CCOC(=O)Cn1c(Cl)ccc1C(=O)Nc1ccc(Nc2ccc(NC(=O)c3ccc(N4CCC(O)CC4)cc3)cc2)cc1 [Compound 830, Ethyl 2-(2-chloro-5-((4-((4-(4-(4-hydroxypiperidin-1-yl)benzamido)phenyl)amino)phenyl)carbamoyl)-1H-pyrrol-1-yl)acetate] | 15
7 | O=C(Nc1ccc(Nc2ccc(NC(=O)c3cc[nH]c3)cc2)c(F)c1)c1ccc(N2CCC(O)CC2)cc1 [Compound 860, N-(4-((2-Fluoro-4-(4-(4-hydroxypiperidin-1-yl)benzamido)phenyl)amino)phenyl)-1H-pyrrole-3-carboxamide] | 17
8 | N#Cc1cc(NC(=O)c2ccc(N3CCC(C(F)(F)F)CC3)cc2)ccc1Nc1ccc(NC(=O)c2cc[nH]c2)cc1 [Compound 885, N-(4-((2-Cyano-4-(4-(4-trifluoromethylpiperidin-1-yl)benzamido)phenyl)amino)phenyl)-1H-pyrrole-3-carboxamide] | 21
9 | CCn1c(C)ccc1C(=O)Nc1ccc(Nc2ccc(NC(=O)c3ccc(N4CCC(O)CC4)cc3)cc2)cc1 [Compound 900] | 24
10 | Cn1cccc1C(=O)Nc1ccc(Oc2ccc(NC(=O)c3ccc(N4CCC(O)CC4)cc3)cc2)cc1 [Compound 915, N-(4-(4-(4-(4-Hydroxypiperidin-1-yl)benzamido)phenoxy)phenyl)-1-methyl-1H-pyrrole-2-carboxamide] | 17
11 | Cn1ccc2cc(C(=O)Nc3ccc4c(cnn4-c4ccc(NC(=O)C5CC5)cc4)c3)ccc21 [Compound 930, N-(1-(4-(Cyclopropanecarboxamido)phenyl)-1H-indazol-5-yl)-1-methyl-1H-indole-5-carboxamide] | 12
12 | O=C(Nc1ccc(N2CCC(O)CC2)cc1)c1ccc2c(cnn2-c2ccc(NC(=O)C3CC3)cc2)c1 [Compound 945, 1-(4-(Cyclopropanecarboxamido)phenyl)-N-(4-(4-hydroxypiperidin-1-yl)phenyl)-1H-indazole-5-carboxamide] | 10
13 | O=C(Nc1ccc2c(ccn2-c2ccc(C(=O)NC3CC3)cc2)c1)c1ccc2c(ccn2CCN2CCOCC2)c1 [Compound 960, N-(1-(4-(Cyclopropylcarbamoyl)phenyl)-1H-indol-5-yl)-1-(2-morpholinoethyl)-1H-indole-5-carboxamide] | 17
14 | O=C(O)CNC(=O)Cn1ccc2cc(NC(=O)c3ccc(-n4ccc5cc(NC(=O)c6ccc(N7CCC(O)CC7)cc6)ccc54)cc3)ccc21 [Compound 975] | 17
15 | O=C(Nc1ccc(-n2ncc3cc(O)ccc32)cc1)c1ccc(N2CCC(O)CC2)cc1 [Compound 990, N-(4-(5-(Hydroxy)-1H-indazol-1-yl)phenyl)-4-(4-hydroxypiperidin-1-yl)benzamide] | 10
16 | O=C(Nc1ccc2c(cnn2-c2ccc(NC(=O)c3cnc4cc[nH]c4c3)cc2)c1)c1ccc(N2CCC(O)CC2)cc1 [Compound 1005, N-(4-(5-(4-(4-Hydroxypiperidin-1-yl)benzamido)-1H-indazol-1-yl)phenyl)-1H-pyrrolo[3,2-b]pyridine-6-carboxamide] | 13

Row | SMILES | Activity (%)
17 | CCOC(=O)c1ccc(-n2ncc3cc(NC(=O)c4ccc(N5CCC(O)CC5)cc4)ccc32)cc1 [Compound 1030, Ethyl 4-(5-(4-(4-hydroxypiperidin-1-yl)benzamido)-1H-indazol-1-yl)benzoate] | 10
18 | N#CCNC(=O)c1ccc(-n2ncc3cc(NC(=O)c4ccc(N5CCC(O)CC5)cc4)ccc32)cc1 [Compound 1045, N-(Cyanomethyl)-4-(5-(4-(4-hydroxypiperidin-1-yl)benzamido)-1H-indazol-1-yl)benzamide] | 15
19 | O=C(NC1CC1)c1ccc(-n2cnc3cc(NC(=O)c4cc5ccccc5[nH]4)ccc32)cc1 [Compound 1060, N-(1-(4-(Cyclopropylcarbamoyl)phenyl)-1H-benzo[d]imidazol-5-yl)-1H-indole-2-carboxamide] | 18
20 | Cn1ccc(C(=O)Nc2ccc(-n3cc(C4CC4)c4cc(NC(=O)c5ccc(N6CCC(O)CC6)cc5)ccc43)cc2)c1 [Compound 1070, N-(4-(3-cyclopropyl-5-(4-(4-hydroxypiperidin-1-yl)benzamido)-1H-indol-1-yl)phenyl)-1-methyl-1H-pyrrole-3-carboxamide] | 15
21 | CN(C)c1ccc(C(=O)Nc2ccc(-c3nc4cc(NC(=O)c5ccc(N(C)C)cc5)ccc4[nH]3)cc2)cc1 [Compound 1700, 4-Dimethylamino-N-(4-(5-(4-dimethylaminobenzamido)-1H-benzimidazol-2-yl)phenyl)benzamide] | 17
22 | COC(=O)c1ccc(C(=O)Nc2ccc3[nH]c(-c4ccccc4)nc3c2)cc1 [Compound 1705, Methyl 4-(2-phenyl-1H-benzimidazol-5-ylcarbamoyl)-benzoate] | 12
23 | CN1CCN(c2ccc3nc(-c4ccc5[nH]c(-c6ccccc6)nc5c4)[nH]c3c2)CC1 [Compound 1710, 5-(6-(4-Methylpiperazino)-1H-benzimidazol-2-yl)-2-phenyl-1H-benzimidazole] | 11
24 | Nc1ccc(C(=O)Nc2ccc(-c3nc4c(Cl)c(NC(=O)c5ccc(N)cc5)ccc4[nH]3)cc2)cc1 [Compound 1715, 4-Amino-N-(4-(5-(4-aminobenzamido)-4-chloro-1H-benzimidazol-2-yl)phenyl)benzamide] | 10
25 | O=C(O)c1ccc(-c2nc3cc(NC(=O)c4ccc(N5CCCC5)cc4)ccc3[nH]2)cc1 [Compound 1719] | 17
26 | COc1cccc(C(=O)Nc2ccc3[nH]c(-c4ccccc4)nc3c2)c1 [Compound 1724, 3-Methoxy-N-(2-phenyl-1H-benzimidazol-5-yl)benzamide] | 13
27 | COc1ccc(-c2nc3cc(NC(=O)c4ccc(-n5cccc5)cc4)ccc3[nH]2)cc1 [Compound 1729, N-(2-(4-Methoxyphenyl)-1H-benzimidazol-5-yl)-4-pyrrolylbenzamide] | 14
28 | CN(C)c1ccc(C(=O)Nc2ccc3[nH]c(-c4ccc5c(ccn5C)c4)nc3c2)cc1 [Compound 1734, N-(2-(1-Methyl-1H-indol-5-yl)benzimidazol-5-yl)-4-dimethylaminobenzamide] | 20
29 | COC(=O)c1ccc(C(=O)Nc2ccc3[nH]c(-c4ccc(OC)cc4)nc3c2)cc1 [Compound 1739, Methyl 4-(2-(4-methoxyphenyl)-1H-benzimidazol-5-ylcarbamoyl)-benzoate] | 19
30 | CN(C)c1ccc(-c2nc3cc(-c4ccc5[nH]c(-c6ccc(N(C)C)cc6)nc5c4)ccc3[nH]2)cc1 [Compound 1744, 4,4′-(5,5′-Bibenzimidazole-2,2′-diyl)bis(N,N-dimethylaniline)] | 11
31 | O=C(Nc1ccccc1)c1ccc(-c2nc3cc(NC(=O)c4ccccc4)ccc3[nH]2)cc1 [Compound 1747, N-Phenyl-4-(5-benzamido-1H-benzimidazol-2-yl)benzamide] | 19
